Data taken from ChEMBL document CHEMBL5360614, “Quinoline Thiourea-Based Zinc Ionophores with Antibacterial Activity” (J Med Chem, 2023).
Converted amounts (≈) assume the structure as drawn. The source made the active and inactive calls. The rule behind the calls is not given here. Non-standard residues stand in square brackets, D forms with d. Residues, ends and D or L forms follow the SMILES beside them. ξ: configuration not given here. Orn = NCCC[C@H](N)C(=O)O; ξP = O=C(O)C1CCCN1

Key:
[1] = test system: Staphylococcus aureus; assay: Antibacterial activity against Staphylococcus aureus MTCC-96 assessed as reduction in bacterial growth incubated for 14 to 16 hrs by microbroth dilution method; assay type: functional; conditions: time 14-16 hrs
[2] = test system: Staphylococcus aureus; assay: In vivo antibacterial activity against Staphylococcus aureus MTCC-96 infected in Balb/c mouse assessed as bacterial load by measuring CFU in liver at 523.455 microM/Kg, iv for 7 days by CFU assay (Rvb= 719 CFU); assay type: functional, organism-based; conditions: time 7.0 day
[3] = test system: Staphylococcus aureus; assay: In vivo antibacterial activity against Staphylococcus aureus MTCC-96 infected in Balb/c mouse assessed as less dilated hepatic artery at 523.455 microM/Kg, iv for 7 days by hematoxylin and eosin staining based microscopic analysis; assay type: functional, organism-based; conditions: time 7.0 day
[4] = test system: Staphylococcus aureus; assay: In vivo antibacterial activity against Staphylococcus aureus MTCC-96 infected in Balb/c mouse assessed as hepatocyte distribution at 523.455 microM/Kg, iv for 7 days by hematoxylin and eosin staining based microscopic analysis; assay type: functional, organism-based; conditions: time 7.0 day
[5] = test system: Staphylococcus aureus; assay: In vivo antibacterial activity against Staphylococcus aureus MTCC-96 infected in Balb/c mouse assessed as liver central vein with minimum infiltration at 523.455 microM/Kg, iv for 7 days by hematoxylin and eosin staining based microscopic analysis; assay type: functional, organism-based; conditions: time 7.0 day
[6] = test system: Staphylococcus aureus; assay: In vivo antibacterial activity against Staphylococcus aureus MTCC-96 infected in Balb/c mouse assessed as less dilated portal vein in liver at 523.455 microM/Kg, iv for 7 days by hematoxylin and eosin staining based microscopic analysis; assay type: functional, organism-based; conditions: time 7.0 day
[7] = test system: Staphylococcus aureus; assay: Antibacterial activity against gentamicin-and methicillin-resistant Staphylococcus aureus ATCC 33592 assessed as reduction in bacterial growth incubated for 14 to 16 hrs by microbroth dilution method; assay type: functional; conditions: time 14-16 hrs
[8] = test system: Escherichia coli; assay: Antibacterial activity against Escherichia coli MTCC 1687 assessed as reduction in bacterial growth incubated for 14 to 16 hrs by microbroth dilution method; assay type: functional; conditions: time 14-16 hrs
[9] = test system: Staphylococcus aureus; assay: Antibacterial activity against gentamicin-and methicillin-resistant Staphylococcus aureus ATCC 33592 assessed as reduction in bacterial growth incubated for 14 to 16 hrs in presence of 1 uM 1-(2-(1H-benzo[d]imidazol-1-yl)quinolin-8-yl)-3-(3,5-bis(trifluoromethyl)phenyl)thiourea by microbroth dilution method; assay type: functional; conditions: time 14-16 hrs
[10] = test system: Staphylococcus aureus; assay: Antibacterial activity against gentamicin-and methicillin-resistant Staphylococcus aureus ATCC 33592 assessed as reduction in bacterial growth incubated for 14 to 16 hrs in presence of 1 uM 1-(2-(1H-benzo[d]imidazol-1-yl)quinolin-8-yl)-3-(3,5-bis(trifluoromethyl)phenyl)thiourea and 100 uM ZnCl2 by microbroth dilution method; assay type: functional; conditions: time 14-16 hrs
[11] = test system: Staphylococcus aureus; assay: Antibacterial activity against gentamicin-and methicillin-resistant Staphylococcus aureus ATCC 33592 assessed as reduction in bacterial growth incubated for 14 to 16 hrs in presence of 1 uM 1-(2-(1H-benzo[d]imidazol-1-yl)quinolin-8-yl)-3-(3,5-bis(trifluoromethyl)phenyl)thiourea and 200 uM ZnCl2 by microbroth dilution method; assay type: functional; conditions: time 14-16 hrs
[12] = test system: Staphylococcus aureus; assay: Potency index, ratio of compound MIC to compound MIC in presence of 1 uM 1-(2-(1H-benzo[d]imidazol-1-yl)quinolin-8-yl)-3-(3,5-bis(trifluoromethyl)phenyl)thiourea and 200 uM ZnCl2 for antibacterial activity against gentamicin-and methicillin-resistant Staphylococcus aureus ATCC 33592; assay type: functional
[13] = test system: Staphylococcus aureus; assay: Antibacterial activity against gentamicin-and methicillin-resistant Staphylococcus aureus ATCC 33592 assessed as reduction in bacterial growth incubated for 14 to 16 hrs in presence of 200 uM ZnCl2 by microbroth dilution method; assay type: functional; conditions: time 14-16 hrs
[14] = test system: Cell membrane; assay: Induction of cell membrane depolarization in Staphylococcus aureus MTCC-96 assessed as increase in fluorescence intensity at 30 uM by DiSC3-5 dye based fluorescence method; assay type: subcellular; conditions: filed as opener
[15] = test system: Staphylococcus aureus; assay: Antibacterial activity against gentamicin-and methicillin-resistant Staphylococcus aureus ATCC 33592 assessed as reduction in bacterial growth incubated for 14 to 16 hrs in presence of 1 uM 1-(2-(1H-benzo[d]imidazol-1-yl)quinolin-8-yl)-3-(3,5-bis(trifluoromethyl)phenyl)thiourea and 50 uM ZnCl2 by microbroth dilution method; assay type: functional; conditions: time 14-16 hrs
[16] = test system: Staphylococcus aureus; assay: Antibacterial activity against gentamicin-and methicillin-resistant Staphylococcus aureus ATCC 33592 assessed as reduction in bacterial growth incubated for 14 to 16 hrs in presence of 2 uM 1-(2-(1H-benzo[d]imidazol-1-yl)quinolin-8-yl)-3-(3,5-bis(trifluoromethyl)phenyl)thiourea and 50 uM ZnCl2 by microbroth dilution method; assay type: functional; conditions: time 14-16 hrs
[17] = test system: Staphylococcus aureus; assay: Antibacterial activity against gentamicin-and methicillin-resistant Staphylococcus aureus ATCC 33592 assessed as reduction in bacterial growth incubated for 14 to 16 hrs in presence of 100 uM ZnCl2 by microbroth dilution method; assay type: functional; conditions: time 14-16 hrs
[18] = test system: Staphylococcus aureus; assay: Disruption of membrane integrity in Staphylococcus aureus MTCC-96 assessed as increase in fluorescence intensity by PI staining based fluorescence analysis; assay type: functional, organism-based

## [O-][n+]1ccccc1S [PYRITHIONE]
[1]
  MIC: 9.8 µM (≈ 1.25 µg/mL)

## GENTAMICIN
[2]
  Activity: 62 CFU
[3]
  Activity: Active
[4]
  Activity: Active
[5]
  Activity: Active
[6]
  Activity: Active

## O=[N+]([O-])c1ccc(NC(=S)Nc2cccc3cccnc23)cc1
[1]
  MIC: > 25 µM
[7]
  MIC: > 50 µM
[8]
  MIC: > 50 µM

## CN(C)[C@@H]1C(O)=C(C(N)=O)C(=O)[C@@]2(O)C(O)=C3C(=O)c4c(O)cccc4[C@@](C)(O)[C@H]3C[C@@H]12 [TETRACYCLINE]
[9]
  MIC: 168 µM
[10]
  MIC: 0.87 µM
[11]
  MIC: 0.18 µM
[7]
  MIC: 168 µM (≈ 74.7 µg/mL)
[12]
  Ratio: 933
[13]
  MIC: 168 µM

## CC1(C)S[C@@H]2[C@H](NC(=O)[C@H](N)c3ccc(O)cc3)C(=O)N2[C@H]1C(=O)O [AMOXICILLIN]
[9]
  MIC: 17 µM
[10]
  MIC: 4.09 µM
[11]
  MIC: 0.05 µM
[7]
  MIC: 17 µM (≈ 6.21 µg/mL)
[12]
  Ratio: 341
[13]
  MIC: 17 µM

## S=C(Nc1ccccc1)Nc1cccc2cccnc12
[1]
  MIC: > 25 µM
[7]
  MIC: > 50 µM
[8]
  MIC: > 50 µM

## FC(F)(F)c1cc(NC(=S)Nc2cccc3ccc(-n4ccnc4)nc23)cc(C(F)(F)F)c1
[1]
  MIC: 12.5 µM (≈ 6.02 µg/mL)
[7]
  MIC: 12.5 µM (≈ 6.02 µg/mL)
[8]
  MIC: > 50 µM

## FC(F)(F)c1cc(NC(=S)Nc2cccc3ccc(Nc4nc5ccccc5[nH]4)nc23)cc(C(F)(F)F)c1
[1]
  MIC: > 50 µM
[7]
  MIC: > 50 µM
[8]
  MIC: > 50 µM

## CC(C)[C@@H]1NC(=O)[C@H](C)OC(=O)[C@@H](C(C)C)NC(=O)[C@@H](C(C)C)OC(=O)[C@H](C(C)C)NC(=O)[C@H](C)OC(=O)[C@@H](C(C)C)NC(=O)[C@@H](C(C)C)OC(=O)[C@H](C(C)C)NC(=O)[C@H](C)OC(=O)[C@@H](C(C)C)NC(=O)[C@@H](C(C)C)OC1=O
[14]
  Activity: Active

## CC(C)(O/N=C(\C(=O)N[C@@H]1C(=O)N2C(C(=O)[O-])=C(C[n+]3ccccc3)CS[C@H]12)c1csc(N)n1)C(=O)O [CEFTAZIDIME]
[9]
  MIC: 229 µM
[10]
  MIC: 5.7 µM
[11]
  MIC: 0.15 µM
[7]
  MIC: 229 µM (≈ 125 µg/mL)
[12]
  Ratio: 1524
[13]
  MIC: 229 µM

## NC[C@H]1O[C@H](O[C@H]2[C@H](O)[C@@H](O[C@H]3O[C@H](CO)[C@@H](O)[C@H](N)[C@H]3O)[C@H](N)C[C@@H]2N)[C@H](O)[C@@H](O)[C@@H]1O [KANAMYCIN]
[9]
  MIC: 155 µM
[10]
  MIC: 6.44 µM
[11]
  MIC: 0.31 µM
[7]
  MIC: 155 µM (≈ 75.1 µg/mL)
[12]
  Ratio: 499
[13]
  MIC: 155 µM

## COc1ccc(NC(=S)Nc2cccc3cccnc23)cc1
[1]
  MIC: > 25 µM
[7]
  MIC: > 50 µM
[8]
  MIC: > 50 µM

## FC(F)(F)c1ccc(NC(=S)Nc2cccc3cccnc23)cc1
[1]
  MIC: 6.25 µM (≈ 2.17 µg/mL)
[7]
  MIC: 6.25 µM (≈ 2.17 µg/mL)
[8]
  MIC: > 50 µM

## [Cl-].[Cl-].[Zn+2] [ZINC CHLORIDE]
[1]
  MIC: 1560 µM
[7]
  MIC: 1560 µM
[8]
  MIC: 2000 µM

## FC(F)(F)c1cc(NC(=S)Nc2cccc3ccc(-n4cccc4)nc23)cc(C(F)(F)F)c1
[1]
  MIC: > 50 µM
[7]
  MIC: > 50 µM
[8]
  MIC: > 50 µM

## O=C(Nc1cc(C(F)(F)F)cc(C(F)(F)F)c1)Nc1cccc2cccnc12
[1]
  MIC: > 50 µM
[7]
  MIC: > 50 µM
[8]
  MIC: > 50 µM

## CC1(C)S[C@@H]2[C@H](NC(=O)[C@H](N)c3ccccc3)C(=O)N2[C@H]1C(=O)O [AMPICILLIN]
[15]
  MIC: 2 µM
[9]
  MIC: 2.1 µM
[10]
  MIC: 0.03 µM
[11]
  MIC: 0.03 µM
[7]
  MIC: 134 µM (≈ 46.8 µg/mL)
[12]
  Ratio: 4466
[16]
  MIC: 0.03 µM
[17]
  MIC: 134 µM
[13]
  MIC: 134 µM

## CUPRIC CHLORIDE
[1]
  MIC: 1870 µM

## CC(C)C[C@@H]1NC(=O)[C@H](CCCN)NC(=O)[C@H](C(C)C)NC(=O)[C@@H]2CCCN2C(=O)[C@@H](Cc2ccccc2)NC(=O)[C@H](CC(C)C)NC(=O)[C@H](CCCN)NC(=O)[C@H](C(C)C)NC(=O)C2CCCN2C(=O)[C@@H](Cc2ccccc2)NC1=O (stereo partly drawn) (cyclo(L[dF]PV[Orn]L[dF][ξP]V[Orn]))
[1]
  MIC: 3.12 µM (≈ 3.56 µg/mL)
[7]
  MIC: 6.5 µM (≈ 7.42 µg/mL)
[8]
  MIC: 4.51 µM (≈ 5.15 µg/mL)

## FC(F)(F)c1cc(NC(=S)Nc2cccc3ccc(-n4ccc5ccccc54)nc23)cc(C(F)(F)F)c1
[1]
  MIC: 6.25 µM (≈ 3.32 µg/mL)
[7]
  MIC: 6.25 µM (≈ 3.32 µg/mL)
[8]
  MIC: > 50 µM

## O=C(O)c1cn(C2CC2)c2cc(N3CCNCC3)c(F)cc2c1=O [CIPROFLOXACIN]
[1]
  MIC: 0.45 µM (≈ 0.149 µg/mL)
[18]
  Activity: inactive
[7]
  MIC: 1.5 µM (≈ 0.497 µg/mL)
[8]
  MIC: 0.51 µM (≈ 0.169 µg/mL)
